This note sets out measurements from US20140193802A1, “IDENTIFICATION OF AN ALTERED THERAPEUTIC SUSCEPTIBILITY TO ANTI-HCMV COMPOUNDS AND OF A RESISTANCE AGAINST ANTI-HCMV COMPOUNDS” (priority 2012, published 2014).

Holding throughout (assay type): cell-based, human cytomegalovirus (HCMV)
Test [1] deals with RV-HG (wt-HCMV). Nature of the test: HCMV fluorescence reduction assay (GFP-RA). The conditions noted are these: Human betaherpesvirus 5. As for the experimental part: (§1) HCMV Fluorescence Reduction Assay (GFP-RA)
(§2) The susceptibilities of recombinant HCMV laboratory strains expressing GFP were determined by a GFP-based fluorescence reduction assay. For standard assays, 1.5×10^4 NHDF cells/well were cultured in black 96-well plates (Greiner Bio-One, Germany) and infected with either HCMV-GFP (MOI, 0.1) or RV-HG (MOI, 0.2 to 0.5). After virus adsorption, the virus inoculum was replaced with 200 μl fresh medium. Thereafter, 100 μl medium containing the test compounds was added to wells of horizontal row G, followed by serial 3-fold dilutions up to row A. All drug concentrations were tested at least in duplicate. Wells of the horizontal row H served as the virus control. Plates were incubated at 37° C. for 7 days. The medium was replaced by 200 μl PBS, and GFP units (GFPU) were determined by a charge-coupled-device-camera-based fluorescence detector (FluoBox; Bayer Technology Services GmbH, Leverkusen, Germany), which captures 96 images simultaneously. Drug effects were calculated as a percentage of reduction in GFPU in the presence of each drug concentration compared to the GFPU determined in the absence of drug. EC50 and EC90 values (drug concentrations producing 50% and 90% reduction in GFPU) were calculated using nonlinear regression curve fit with a variable slope. GraphPad Prism 3.02 or 4.0 software (GraphPad Software Inc., La Jolla, Calif.) was used for all analyses.
(§3) The HCMV AD169-derived bacterial artificial chromosome (BAC) pHG served as the backbone for the construction of the mutant viruses. The markerless introduction of point mutations into pHG was done using a two-step recombination protocol according to the en passant method. Briefly, a recombination fragment containing the I-SceI-AphAI cassette from plasmid pEPKan-S was obtained by PCR using primers containing ˜60 bp of homology to the intended integration site in ORF UL56 of BAC pHG and ˜20 bp specific for pEPKan-S. This fragment was electroporated into Escherichia coli GS1783 that harbored the pHG BAC. […] After successful kanamycin selection, all non-HCMV sequences were removed by an intrabacterial ISceI digest and a subsequent second Red recombination, resulting in the scarless repair of the mutated UL56 gene in the background of BAC pHG. The integrity of the generated BACs was confirmed by restriction enzyme digestion and sequencing. To reconstitute virus mutants, the recombinant BACs were transfected into permissive MRC5 cells. At least two independent virus clones per mutation were generated and evaluated.

In test [2] the test system is RV-HG UL56-C325Yrev. As to the kind of experiment: GFP-RA, marker transfer revertant. The conditions noted are these: Human betaherpesvirus 5. As for the experimental part: as §1, §2, §3
The subject of test [3] is HCMV strain AD169. As to the kind of experiment: HCMV cytopathic effect reduction assay (CPE-RA). The conditions noted are these: Human betaherpesvirus 5, mean ± SD. Here is the method: HCMV Cytopathic Effect Reduction Assay (CPE-RA)
CPE-RAs were performed basically as described elsewhere (HCMV replication assay). In brief, the addition of 2 μl test compound of 50, 5, 0.5, 0.05, 0.005, and 0.0005 mM DMSO stock solutions to 100 μl cell culture medium in duplicate was followed by serial 2-fold dilutions in 96-well microtiter plates. Each well was supplemented with 150 μl of either a suspension of 1×10^4 NHDF cells mixed with cell-free HCMV (multiplicity of infection (MOI), 0.03) or a suspension of 1×10^4 to 3×10^4 HCMV-infected and uninfected NHDF cells (MOI, 0.001 to 0.002). Non-infected and non-treated cells served as controls on each plate. Final compound concentrations ranged between 250 and 0.00005 μM. Plates were incubated for 6 to 7 days at 37° C. or until the virus control reached 100% CPE. A mixture containing 20% Giemsa stain (Merck) and 5% formalin solution (Merck) was added to the wells for fixation and staining. After extensive washing, plates were dried at 56° C. followed by visual evaluation using an overhead microscope (plaque magnifier; Tecnorama Zürich). Each assay was performed at least in triplicate, and standard deviations were calculated. The assay plate data were used to calculate the EC50 (CPE-RA), i.e., the concentration of drug that inhibits the CPE by 50% compared with an untreated virus-infected control.
(Cytopathic effects are the visible damage that an infection or toxin causes in cultured cells.)

In test [4] the test system is RV-HG UL56-R369M. Nature of the test: GFP-RA, marker transfer mutant. The conditions noted are these: for EC50: Human betaherpesvirus 5, RV-HG UL56-R369M, fluorescence reduction assay, mean ± SD, read-out: EC50. As for the experimental part: as §1, §2, §3
Test [5] has as its system RV-HG UL56-C325Y. As to the kind of experiment: GFP-RA, marker transfer mutant. The conditions noted are these: for EC50: Human betaherpesvirus 5. Here is the method: as §1, §2, §3
Test [6] concerns RV-HG UL56-V236M. Nature of the test: GFP-RA, marker transfer mutant. The conditions noted are these: for EC50: Human betaherpesvirus 5. As for the experimental part:
as §1, §2, §3

The subject of test [7] is RV-HG UL56-L241P/R369S. Nature of the test: GFP-RA, marker transfer mutant. The conditions noted are these: for EC50: Human betaherpesvirus 5, RV-HG UL56-L241P/R369S, fluorescence reduction assay, mean ± SD, read-out: EC50. Here is the method: as §1, §2, §3
Test [8] deals with RV-HG UL56-L241P. As to the kind of experiment: GFP-RA, marker transfer mutant. The conditions noted are these: for EC50: Human betaherpesvirus 5. As for the experimental part:
as §1, §2, §3

For test [9], the system named is RV-HG UL56-V231L. As to the kind of experiment: GFP-RA, marker transfer mutant. The conditions noted are these: for EC50: Human betaherpesvirus 5, RV-HG UL56-V231L, fluorescence reduction assay, mean ± SD, read-out: EC50. Here is the method:
as §1, §2, §3

For test [10], the system named is RV-HG UL56-R369S. As to the kind of experiment: GFP-RA, marker transfer mutant. The conditions noted are these: for EC50: Human betaherpesvirus 5, RV-HG UL56-R369S, fluorescence reduction assay, mean ± SD, read-out: EC50. Here is the method: as §1, §2, §3

Where “and” joins values, the source holds several entries; their conditions need not be identical. Equal values may be shown once. Read-outs that look alike come from different tables or passages of the source.

A word on the EC50: it is the concentration that produces a half-maximal response. Turning to `Nc1nc(O)c2ncn(COC(CO)CO)c2n1` [Ganciclovir], the concentration for a half-maximal effect (EC50) in test [1] was 2210 ± 990 nM; in test [2], 2830 ± 810 nM; in [3], 3400 ± 1500 nM; in test [4], 1260 ± 640 nM; in [5] it was 2110 ± 710 nM; in [6], 1560 ± 330 nM. In addition, the EC50 came to 2860 ± 1160 nM in [7], 2110 ± 770 nM in test [8], 720 ± 240 nM in [9] and 1960 ± 1090 nM in test [10].
Consider `COc1cccc(N2CCN(C3=Nc4c(F)cccc4[C@H](CC(=O)O)N3c3cc(C(F)(F)F)ccc3OC)CC2)c1` [Letermovir, (S)-{8-fluoro-2-[4-(3-methoxyphenyl)-1-piperazinyl]-3-[2-methoxy-5-(trifluoromethyl)phenyl]-3,4-dihydro-4-quinazolinyl}acetic acid], for which the EC50 in test [1] (RV-HG (wt-HCMV), fluorescence reduction assay, mean ± SD, read-out: EC50) was 3 ± 1.2 nM; in [2] (RV-HG UL56-C325Yrev, fluorescence reduction assay, mean ± SD, read-out: EC50), 3.9 ± 0.9 nM; in test [3], 5.6 ± 1.6 nM; in test [4], 40 ± 15 nM; in test [5] (RV-HG UL56-C325Y, fluorescence reduction assay, mean ± SD, read-out: EC50), 26400 ± 8500 nM; in [6] (RV-HG UL56-V236M, fluorescence reduction assay, mean ± SD, read-out: EC50) it was 70 ± 20 nM. In addition, the 50% effective concentration (EC50) in test [7] worked out at 5260 nM; in test [8] (RV-HG UL56-L241P, fluorescence reduction assay, mean ± SD, read-out: EC50), 680 ± 240 nM; in test [9], 20 ± 4.7 nM; in test [10], 140 ± 70 nM. The “Resistance index (RI) = EC50 indicated RV-HG mutant/EC50 RV-HG wt” value was 13 in [4] (RV-HG UL56-R369M vs RV-HG wt); 8910 in test [5] (RV-HG UL56-C325Y vs RV-HG wt); 24 in test [6] (RV-HG UL56-V236M vs RV-HG wt); 1776 in test [7] (RV-HG UL56-L241P/R369S vs RV-HG wt); ~160 and 221 in test [8] (RV-HG UL56-L241P vs RV-HG wt); 5 in test [9] (RV-HG UL56-V231L vs RV-HG wt). For the same compound, in test [10] (RV-HG UL56-R369S vs RV-HG wt), the “Resistance index (RI) = EC50 indicated RV-HG mutant/EC50 RV-HG wt” value was ~38 and 48.
